The record followed here is a melting point compilation (Tetko et al.; mined from patent text by program, amines drawn as free bases though some values may be those of a salt).

Structures are written as SMILES. Bounds are passed on as bounds.

As to `Cc1ccc(Nc2c(F)cccc2C(F)(F)F)c(CC(=O)O)c1`, the melting point was 155 to 156 °C.

`Cc1cc(C2=NOC(c3cc(Cl)cc(Cl)c3)(C(F)(F)F)C2)ccc1C(=O)NC1CCCO1` (stereo not given) showed a melting point of 144 to 147 °C.

The molecule `CCOC(=O)[C@H]1O[C@@H]1[C@H](Cc1ccccc1)NC(=O)OC(C)(C)C` displayed a melting point of 55 to 61 °C.

As to `O=C(O)Cc1noc2cc(F)ccc12`, the melting point was 132 to 133 °C.

As to `NS(=O)(=O)c1cccc(-c2cccc(-c3nc(-c4ccc(C(F)(F)F)cc4)cc(C(F)F)n3)c2)c1`, the melting point was determined as 204 °C.

The molecule `O=C(O)c1ccc(OCC(O)c2cc3cc(Cl)ccc3o2)cc1` (stereo not given) returned a melting point of 157 to 159 °C.

Take `CCOc1ccc(C=Nc2ccc(S(=O)(=O)NC(C)(C)C)cc2)cc1`: the melting point stood at 188 °C.

`O=C(O)C(Oc1ccc(Cl)cc1)(C(F)(F)F)C(F)(F)F` displayed a melting point of 81 to 83 °C.

The molecule `CN1OCC(=O)N(C(c2ccccc2)c2ccccc2)C1=S` came in with a melting point of 152 to 154 °C.

The molecule `COc1cc2c(cc1OC)N(C(=O)c1ccc(-c3ccccc3C(F)(F)F)c(C)c1)Cc1ccc(C(=O)N(CCO)CCO)n1C2` showed a melting point of 130 to 132 °C.

`CCCc1cc(C(=O)O)cc(CCC)c1OCCCCCCc1cccc(O)c1O` yielded a melting point of 94 to 96 °C.

With `O=c1[nH]c2cc(Cl)ccc2n(O)c1=O`, the melting point was more than 300 °C.

For the molecule `O=C(C=Cc1ccc(Cl)cc1)N1CCN(c2ccc(OC[C@H]3CO[C@](Cn4cncn4)(c4ccc(Cl)cc4Cl)O3)cc2)CC1` (relative stereo), the melting point was 185 °C.

`CN1C(=O)N(c2cccc(Cl)c2)C(=O)C1S(=O)(=O)c1ccc(F)cc1` (stereo not given) came in with a melting point of 170 to 173 °C.

For the molecule `CC(C)C(CN1CCCC1)C(=O)c1cc(-c2ccccc2)no1` (stereo not given), the melting point lay within 77 to 79 °C.

In turn, `N#Cc1ccc(-c2c[nH]cn2)cc1` returned a melting point of 164 to 167 °C.

Consider `COc1cccc(Nc2ccnc(Nc3cc(OC)c(OC)c(OCc4ccccc4)c3)n2)c1`, for which the melting point was in the range of 83 to 84 °C.

Consider `COC(=O)c1cccc(Oc2cccc(-c3nn(Cc4ccc(C(F)(F)P(=O)(O)O)c(F)c4)c(=Nc4ccc(Cl)c(Cl)c4)s3)c2)c1`, for which the melting point was 137 to 139 °C.

The molecule `N#CC1(Sc2ccccc2)Cc2cc3c(cc21)N(C(=O)Nc1cccnc1)CC3` (stereo not given) yielded a melting point of 110 to 113 °C.

`O=C(O)CCCN1CCN(Cc2ccc3c(c2)-c2[nH]nc(-c4ccsc4)c2C3)CC1` registered a melting point of 195 to 198 °C.

For the molecule `Cc1cc(-c2ccnc(C(N)=O)c2)n(-c2ccc(F)cc2)n1`, the melting point fell in the range of 168 to 170 °C.

On to `CC(C)CC(=O)Nc1cccc(-c2ccnc3c(-c4ccc(CO)cc4)cnn23)c1`, for which the melting point was 170 to 172 °C.

The molecule `CC(=O)Nc1ccc(S(=O)(=O)N2CCCCC2)cc1` had a melting point of 137 to 139 °C.

In the case of `Nc1nc2c(sc(=O)n2C/C=C\CCl)c(=O)[nH]1`, the melting point fell in the range of 200 to 202 °C.

In turn, `Fc1ccc(C2=NOC(CN=C=S)C2)cc1` (stereo not given) displayed a melting point of 59 to 61 °C.

With `COP(=S)(OC)Oc1ncn(-c2ccccn2)n1`, the melting point fell in the range of 88 to 91 °C.

Turning to `O=C(CC1CCC1)N[C@H]1CC[C@H](CCN2CCN(c3nccc4c3OCC4)CC2)CC1`, the melting point was found to be 148 °C.

Molecule `CCSc1ccc(-c2ncco2)c2c1C(=O)CC(C)C2` (stereo not given) gave a melting point of 111 to 113 °C.

`CC(C)n1nc(-c2sc(C(=O)NCCc3ccccn3)nc2-c2ccc(F)cc2)ccc1=O`: the melting point was 144 to 145 °C.

As to `O=C(O)CCCCCCCNC(=O)C(CS)Cc1ccccc1` (stereo not given), the melting point was in the range of 81 to 83 °C.

Molecule `Nc1cccc(-c2ccc(CCN3CCC4(CC3)NC(=O)N(Cc3ccccc3)C4=O)cc2)n1` showed a melting point of 190 °C.

Consider `CCOC(=O)c1c(CS(=O)c2nccn2C)nc2cc(OC)c(OC)cc2c1-c1ccc(OC)c(OC)c1` (stereo not given), for which the melting point was in the range of 193 to 194 °C.

`O=C(O)c1cc(-n2c(-c3ccccc3)cc3c2CCC3)ccc1O` came in with a melting point of 198 to 199 °C.

`CCOC(=O)c1ncn2c3cccc(Cl)c3c(=O)n(C)c12` returned a melting point of 248 to 254 °C.

Regarding `O=C(O)c1cc2ccoc2nc1C(=O)O`, the melting point was in the range of 189 to 192 °C.

`O=C(NC1CN2CCC1CC2)C1(O)c2ccccc2-c2ccccc21` (stereo not given) returned a melting point of 230 °C.

The molecule `Cc1ccccc1-c1c(NC(=O)C=Cc2ccc(O)c(O)c2)c(=O)oc2cc3c(cc12)CCC3` returned a melting point of 295 to 297 °C.

`CC1(NC(=O)C(F)(F)F)CN(c2c(F)cc3c(=O)c(C(=O)O)cn(CCF)c3c2F)C1`: the melting point is 205 to 215 °C.

The molecule `COc1cc2c(cc1OC)C(c1ccnc(-n3nc(-c4cccnc4)c4ccccc4c3=O)c1)=N[C@H](CO)C2` gave a melting point of 235 to 238 °C.

`O=c1oc2ncccc2n1CCCBr` gave a melting point of 62 to 63 °C.

Consider `COc1ncc(Cl)cc1C1OC(=O)NC1=O` (stereo not given), for which the melting point was 199 to 204 °C.

Molecule `COc1nc(C)nc(NC(=O)NS(=O)(=O)c2ccccc2OCC2(C)OCCO2)n1` showed a melting point of 135 to 136 °C.

The molecule `CSc1nc(NCC=C(C)C)c2ccnc-2[nH]1` came in with a melting point of 155 to 156 °C.

Take `COc1cccc(OC)c1C(=O)NC(=S)NNC(=O)c1ccc(Cl)cc1`: the melting point was in the range of 206 to 208 °C.

On to `CNS(=O)(=O)Nc1ccc(OCC2CCN(c3ccncc3)CC2)cc1`, for which the melting point was 170 to 172 °C.

Take `CC1(C)CC(=O)Nc2ccc(N)cc21`: the melting point is 126 to 130 °C.

`O=[N+]([O-])c1ccccc1C=[N+]([O-])c1cccc(CO)c1` gave a melting point of 97 to 99 °C.

The molecule `O=S(=O)(C(=CNc1ccccc1C(F)(F)F)S(=O)(=O)c1ccc(Cl)cc1)c1ccc(Cl)cc1` came in with a melting point of 169 to 171 °C.

With `CCCCOc1c(CNC(=O)OC(C)(C)C)n(CC(C)C)c(=O)c2ccc(C(N)=NO)cc12`, the melting point is 209 to 210 °C.

As to `CCCCC(CC)COc1cccc2c1C(=O)c1cccc(OCC(CC)CCCC)c1C2=O` (stereo not given), the melting point was 105 °C.

On to `COC(=O)[C@@H]1C[C@H](C(=O)OC(C)(C)C)N(C(=O)CNC(=O)Nc2cccc(C(=O)O)c2)[C@@H]1c1ccccc1` (racemic), for which the melting point was determined as 243 °C.

Regarding `COC(=O)c1ccccc1S(=O)(=O)NC(=O)Nc1nnc(C)c(C)n1`, the melting point fell in the range of 150 to 151 °C.

`CCOC(=O)CC[C@H](NC(=O)c1cc(CCCc2coc3nc(N)nc(N)c23)cs1)C(=O)OCC` returned a melting point of 79 to 80 °C.

`CCCc1c(CSc2nnc(SCCCS(=O)(=O)CC(=O)O)s2)ccc(C(C)=O)c1O` had a melting point of 122 to 125 °C.

`COC(=O)c1cn2c(=O)c(C)c(C)nc2s1`: the melting point fell in the range of 158 to 159 °C.

With `Cc1ccccc1-c1c(C#N)nn(-c2c(Cl)cc(C(F)(F)F)cc2Cl)c1N`, the melting point lay in the range of 199 to 202 °C.

As for `CC(C)(C)n1nc(-c2ccccc2)c(C(N)=O)c1N`, the melting point fell in the range of 177 to 178 °C.

Molecule `CC(Nc1nc(NNC(=O)CCCl)nc(Cl)c1-c1c(F)cccc1Cl)C(F)(F)F` (stereo not given) came in with a melting point of 152 to 156 °C.

`COc1ccc2cc(-c3ccc(OCCN4CCCC4)cc3)sc2c1` came in with a melting point of 151 to 154 °C.

The molecule `CNC(=O)Oc1ccc2c(N(C)CCN3CCOCC3)noc2c1` returned a melting point of 94 to 95 °C.

For orientation: melting point means the temperature of the solid-liquid transition.
